In patent US20080167272A1, “Thalidomide metabolites and methods of use” (Auckland Uniservices Limited, priority 2005, published 2008):

Assays:
TNF [1] = assay: Modulation of TNF production in Colon 38 tumour-bearing mice (serum and tumour, ELISA); format: in vivo; details: 3 h
Procedure: Mice with Colon 38 tumours, approximately 5-7 mm in diameter, were divided into groups of 5. One group was untreated. Other groups were treated with DMXAA (25 mg/kg) alone; DMXAA (25 mg/kg)+thalidomide (100 mg/kg), DMXAA (25 mg/kg)+PG (100 mg/kg), DMXAA (25 mg/kg)+PiG (100 mg/kg), DMXAA (25 mg/kg)+CG (100 mg/kg), DMXAA (25 mg/kg)+thalidomide (20 mg/kg), DMXAA (25 mg/kg)+CG (20 mg/kg), and thalidomide, PG, PiG or CG only at 100 and 200 mg/kg. Three hours after treatment, mice were anaesthetized with halothane (NZ Pharmacology Ltd., Christchurch, New Zealand), and blood was collected from the ocular sinus and tumours were excised. Blood was coagulated overnight at 4° C., and then centrifuged for 30 min at 2,000×g and 4° C., and the serum was removed and stored at −80° C. until use. Tumour tissues were weighed and homogenized in 1.5 ml α-minimal essential medium (Gibco, Grand Island, N.Y., USA). The homogenates were centrifuged (2,000×g, 30 min, 4° C.) and supernatant was removed and re-centrifuged (14,000×g, 30 min, 4° C.). The final supernatants were removed and kept at −80° C. until use. TNF levels in serum and supernatants derived from tumour homogenates were assayed for TNF as described in section 4 (below).
(§1) TNF was assayed using a commercially available ELISA kit (OpEIA human or murine TNF kit, PharMingen, San Diego, Calif., USA), according to the manufacturer's instructions. Briefly, samples (100 μl/well) in duplicate together with a serial dilution of TNF (31.25-2000 pg/ml) for the standard curve, were added to flat-bottom 96-well plates pre-coated with immobilised monoclonal anti-TNF antibody and incubated at room temperature for 2 h. The wells were then washed, biotinylated polyclonal antibody to TNF was added, followed by peroxidase-labelled streptavidin, and incubated at room temperature for 1 h. The wells were washed again, and the substrate, tetramethylbenzidine and hydrogen peroxide was added and after 10 min the reaction was stopped with 2 N sulphuric acid. The absorbance at 450 nm was determined using a microtitre plate reader.

TNF [2] = assay: LPS-induced TNF production by HPBL in culture; format: cell-based, human; details: HPBL, LPS 100 pg/ml, 12 h; all concentrations tested (PG, PiG: 1, 5, 25 μg/ml); FIG. 5
Procedure: Blood (20 ml) each from seven healthy volunteers was collected into heparinized tubes, and was overlayed on top of 10 ml of Ficoll-Paque Plus (Amersham Biosciences AB, Uppsala, Sweden) in 50 ml Falcon polypropylene conical tubes (Becton Dickson Labware, Franklin Lakes, N.J.). The tubes were centrifuged for 30 min at 300×g and 4° C., and the layer of cells was removed and re-suspended at 1×10^6 cells/ml in A-MEM medium supplemented with foetal bovine serum (Moregate BioTech Ltd, Hamilton, New Zealand) (10% v/v), streptomycin sulphate (100 μg/ml) and penicillin-G (100 units/ml) (Sigma, St Louis, Mo., USA). Cells were added to a 24-well plate (Nunc, Kamstrup, Roskilde, Denmark) with LPS (Escherichia coli serotype 055:B5; Sigma, St. Louis, Mo., USA) plus thalidomide or CG at 0.04, 0.2, 1, 5, 25 & 100 μg/ml; or PG or PiG at 1, 5 & 25 μg/ml in a final volume of 1 ml. Wells containing cells only and cells plus LPS only were included as controls. After 12 hours of incubation, supernatants were removed and assayed immediately for TNF as described in section 4.
as §1

ECV304 cells [3] = assay: Inhibition of tube formation of ECV304 cells in Matrigel; format: cell-based, human
Procedure: Each well in a 24-well plate was coated with 300 μl of Matrigel (Becton Dickinson, San Jose, Calif., USA) which was allowed to solidified at 37° C. for 1 h. […] After 15-18 h of incubation at 37° C. at 5% CO2, the culture supernatant was aspirated. The cells were fixed and stained using Diff-Quick staining kit (Dade AG, Dudingen, Switzerland) according to the manufacturer's instructions. After removal of the staining solution the stained cells in each well were photographed along with a measuring ruler placed at the bottom edge of the photographing field (Olympus Camedia C-5050 professional digital camera, Olympus Optical, Tokyo, Japan). The total length of the tubes formed in the photographs was measured and divided by the area of the field (mm/mm^2).

Colon 38 tumours = assay: Tumour growth delay, Colon 38 tumours in mice, combination with DMXAA; format: in vivo; details: for tumour volumes at 21 days after treatment compared with DMXAA alone: FIG. 2; for inhibition of tumour growth compared with DMXAA alone: 100 mg/kg i.p. co-administered with DMXAA 25 mg/kg, FIG. 1A
Excerpt: Mice (C57B1/6 bred at the Animal Resources Unit, University of Auckland, New Zealand) were implanted with Colon 38 tumours, obtained originally from the Mason Research Institute (Auckland, New Zewaland) by transferring 1 mm^3 pieces of the tumour into a subcutaneous opening in the left flank of anaesthetized mice. The mice with tumours were used for growth delay experiments when tumours had reached approximately 3-5 mm in diameter. Mice were divided into 10 groups, an untreated control group, a group treated intraperitoneally (i.p.) with DMXAA (5,6-dimethylxanthenone-4-acetic acid, synthesized at the Auckland Cancer Society Research Centre—ACSRC (Auckland, New Zealand) at 25 mg/kg only, and 8 groups treated with DMXAA together with the hydrolytic thalidomide metabolites PG, PiG, CG also synthesized at the ACSRC as previously described (Lu et al, 2003), or thalidomide at 100 mg/kg, or together with CG or thalidomide at 20 mg/kg or 4 mg/kg. DMXAA was dissolved in saline at 2.5 mg/ml and injected i.p. into mice in a volume of 10 μl/g body weight. Thalidomide, PG, PiG and CG were dissolved in dimethylsulphoxide at 40, 8 or 1.6 mg/ml (for dosages of 100, 20, 4 mg/kg respectively) and injected i.p. in a volume of 2.5 μl/g body weight. Tumours were measured 2-3 times weekly after treatment and tumour volumes were calculated as 0.52×a^2×b, where a and b are the minor and major axes of the tumour. The arithmetic means and standard errors were calculated for each point, counting cured animals as having zero tumour volume, and expressed as fractions of the pre-treatment volume. Growth delay was determined as the difference in the number of days required for the tumour to reach four times the pre-treatment volume.

ECV304 cells [4] = assay: MTT cytotoxicity assay; format: cell-based, human; details: 18 h, 2-250/g/ml, vs untreated or DMSO-treated cultures
Procedure: The 3-(4,5-dimethylthiazol-2-yl)-2,5-diphenyl tetrazolium bromide (MTT) assay, which measures mitochondrial metabolic activity, was used to determine cell viability (Mosmann, 1983). Cells (4×10^3/well) were cultured with various concentrations of thalidomide, CG, PG and PiG in a final volume of 100 μl M199 medium (Gibco, Grand Island, N.Y., USA) supplemented with 10% foetal bovine serum ([…] streptomycin sulphate and 100 units/ml penicillin-G (Sigma, St Louis, Calif., USA) in flat-bottomed 96-well plates at 37° C. at 5% CO2 for 18 h. At the end of the incubation period, 10 μl of MTT (Sigma, St. Louis, Mo., 5 mg/ml in PBS) was added to each well, and the cells were further incubated for 2 h. The supernatants were then removed and the formazan crystals in the cells were dissolved by the addition of 100 μl of DMSO per well, and the absorbance at 590 nm was read using a plate reader. Each concentration of drug was tested in triplicate wells, and the mean ±standard error of the mean (SEM) was calculated.

[5] = all concentrations tested, FIG. 6
[6] = 100 mg/kg co-administered with DMXAA 25 mg/kg, FIG. 3A
[7] = 100 mg/kg co-administered with DMXAA 25 mg/kg, FIG. 3B
[8] = 100 mg/kg co-administered with DMXAA 25 mg/kg

Compound	increase in serum TNF activity above control untreated mice (TNF [1]; DMXAA alone 25 mg/kg, FIG. 3A) [fold]	increase in tumour TNF activity above control untreated mice (TNF [1]; DMXAA alone 25 mg/kg, FIG. 3B) [fold]	effect on LPS-induced TNF production (TNF [2])	inhibition of tube formation (ECV304 cells [3]; [5])	effect on DMXAA-induced serum TNF level (TNF [1]; [6])	effect on DMXAA-induced tumour TNF level (TNF [1]; [7])	tumour volumes at 21 days after treatment compared with DMXAA alone (Colon 38 tumours; [8])	inhibition of tumour growth compared with DMXAA alone (Colon 38 tumours)	toxicity (cell viability, MTT) (ECV304 cells [4])	inhibition of tube formation (ECV304 cells [3]; 250 μg/ml, FIGS. 6 & 7)	inhibition at 2 µg/mL (ECV304 cells [3]; Homo sapiens, ECV-304, lowest concentration tested, 2 μg/ml, FIG. 7) [%]	effect on DMXAA-induced serum TNF level (TNF [1]; 20 mg/kg co-administered with DMXAA 25 mg/kg, FIG. 3A)	effect on DMXAA-induced tumour TNF level (TNF [1]; 20 mg/kg co-administered with DMXAA 25 mg/kg, FIG. 3B)	potentiation of DMXAA-induced anti-tumour effects (Colon 38 tumours; 4 mg/kg co-administered with DMXAA 25 mg/kg, FIG. 1C)	tumour volumes at 21 days after treatment compared with DMXAA alone (Colon 38 tumours; 4 mg/kg co-administered with DMXAA 25 mg/kg)
Cc1ccc2c(=O)c3cccc(CC(=O)O)c3oc2c1C [DMXAA, 5,6-dimethylxanthenone-4-acetic acid, reference compound]	20	50													
NC(=O)CCC(C(=O)O)N1C(=O)c2ccccc2C1=O (stereo not shown) [PG, 5-Amino-2-(1,3-dioxo-1,3-dihydro-2H-isoindol-2-yl)-5-oxopentanoic acid]			no significant effect	did not show any inhibition	had no effect	had no effect	no significant difference in tumour volumes	did not inhibit tumour growth above that of DMXAA alone	No toxicity was observed						
NC(=O)C(CCC(=O)O)N1C(=O)c2ccccc2C1=O (stereo not shown) [PiG, 5-Amino-4-(1,3-dioxo-1,3-dihydro-2H-isoindol-2-yl)-5-oxopentanoic acid]			no significant effect	did not show any inhibition	had no effect	had no effect	no significant difference in tumour volumes	did not inhibit tumour growth above that of DMXAA alone	No toxicity was observed						
O=C1CCC(N2C(=O)c3ccccc3C2=O)C(=O)N1 (stereo not drawn) [thalidomide, α-phthalimidoglutarimide]			significantly decreased LPS-induced TNF levels in a dose-dependent manner		reduced DMXAA-induced TNF levels in serum	no significant effect	significantly smaller tumour volumes than those treated by DMXAA alone	greater inhibition of tumour growth than that of DMXAA alone	No toxicity was observed	Near complete inhibition	38 to 41	reduced DMXAA-induced TNF levels in serum	no significant effect	neither CG nor thalidomide showed potentiation	no significant difference
